Experimental data from paper PMC12435270 (Proceedings of the National Academy of Sciences of the …, 2025).
pKd: −log10 of the molar value. Read-outs that look alike come from different tables or passages of the source.

Tests used:
[1] = molecular target: T1, human creatine transporter (hCRT, SLC6A8) (Homo sapiens, UniProt P48029); assay: cryo-EM structure; format: binding
T1 sequence (P48029 1-635): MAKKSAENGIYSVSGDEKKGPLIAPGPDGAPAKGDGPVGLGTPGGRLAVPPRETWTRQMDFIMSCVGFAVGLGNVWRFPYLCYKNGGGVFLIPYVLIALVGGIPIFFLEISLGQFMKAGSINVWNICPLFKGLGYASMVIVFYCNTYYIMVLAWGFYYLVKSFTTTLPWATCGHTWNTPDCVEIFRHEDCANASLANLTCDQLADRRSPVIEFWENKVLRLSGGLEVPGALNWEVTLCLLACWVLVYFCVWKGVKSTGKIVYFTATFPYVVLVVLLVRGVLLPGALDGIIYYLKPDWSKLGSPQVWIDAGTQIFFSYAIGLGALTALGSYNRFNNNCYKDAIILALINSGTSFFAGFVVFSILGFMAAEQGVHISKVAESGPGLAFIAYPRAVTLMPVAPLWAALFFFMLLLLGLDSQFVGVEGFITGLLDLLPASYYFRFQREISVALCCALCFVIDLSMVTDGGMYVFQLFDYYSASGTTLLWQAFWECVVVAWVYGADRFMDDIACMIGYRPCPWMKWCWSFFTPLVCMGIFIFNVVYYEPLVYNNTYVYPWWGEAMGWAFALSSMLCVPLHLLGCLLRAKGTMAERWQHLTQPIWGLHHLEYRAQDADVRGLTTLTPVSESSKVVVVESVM

[2] = molecular target: T1, human creatine transporter (hCRT, SLC6A8); assay: cryo-EM structure; format: binding; remark: listed apart in the source

Row | SMILES | pKd [1] | pKd [2]
1 | N=C(N)NCCC(=O)O [RGX202] | 5.47 | –
2 | CN(CC(=O)O)C(=N)N [creatine] | – | 5.49
